From patent US11746097B2, “LXR inverse agonists for treatment of cancer” (Saint Louis University, priority 2016, dated 2023)

What was measured:
[1] = molecular target: T1, human LXRα-LBD (Homo sapiens, UniProt Q13133); experiment: Lantha Screen TR-FRET NR-cofactor peptide interaction assay; type: biochemical
T1 construct: Purified human LXRα-LBD (GST); purchased Life Technologies
T1 sequence (Q13133 209-447 limits assumed): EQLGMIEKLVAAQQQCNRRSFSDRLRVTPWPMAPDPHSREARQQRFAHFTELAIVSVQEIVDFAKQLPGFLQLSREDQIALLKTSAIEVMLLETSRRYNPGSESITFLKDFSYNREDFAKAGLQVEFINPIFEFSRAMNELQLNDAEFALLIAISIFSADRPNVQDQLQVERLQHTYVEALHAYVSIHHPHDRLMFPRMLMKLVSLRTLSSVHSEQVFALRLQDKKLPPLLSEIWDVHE
Protocol: Biochemical NR—Cofactor Peptide Interaction Assay (TR-FRET) Assay (Life Technologies kit). Purified human LXRα-LBD (GST), LXRβ-LBD (GST), fluoroscein (FL)-labeled peptides, terbium (TB)-labeled anti-GST tag antibody, and all buffers were purchased from Life Technologies. All LXR assays were conducted in 384-well black medium-binding polystyrene assay plates (Greiner Bio-One). Test compound stock solutions and subsequent serial dilutions were prepared at 100× the final concentration in DMSO, and then were diluted to the final assay concentration of 2× in assay buffer and dispensed into assay plates. LXR-LBDs were added to assay plates and then a mixture of FL-peptide/TB-anti-GST was added to each well containing either a test compound or DMSO control for final concentrations of 2.5 nM LXRα-LBD, 5 nM LXRβ-LBD, 10 nM TB-anti-GST, and 250 nM FL-peptide. Assay plates were protected from light and incubated with gentle shaking for 3.5 hours at room temperature. The TR-FRET ratio (520 nm/492 nm) of each assay well was measured using the Perkin Elmer EnVision plate reader. An excitation filter at 340 nm was used to excite the TB-anti-GST and emission filters 492 nm and 520 nm were used to detect terbium and fluorescein emission signals respectively. A delay of 100 μs followed by a 200 μs integration time was used to collect the time-resolved emission signals.
The assay is identical except we use His-tagged LXR (made in house) and TB-labeled anti-His antibody (Life Technologies). FL-labeled peptides (Life Technologies) are: • NCOR-ID1 NCOR-ID2 SMRT SRC1-2 SRC2-3 TRAP/DRIP

[2] = system: lung and breast tumor bearing mice; experiment: Tumor specific immune response in tumor bearing mice (FIG. 1B); type: in vivo
[3] = system: dendritic cell; experiment: Cultured dendritic cell chemokine expression (FIG. 1A); type: cell-based; details: cultured dendritic cells

Molecule `COC(=O)C1Cc2cc(-c3cccc(S(C)(=O)=O)c3)ccc2CN1S(=O)(=O)c1c(C)cc(C)cc1C` (stereo not shown) [Compound 3, methyl 2-(mesitylsulfonyl)-6-(3-(methylsulfonyl)phenyl)-1,2,3,4-tetrahydroisoquinoline-3-carboxylate] has an IC50 [1] of 5 µM.

In the case of `Cc1cc(C)c(S(=O)(=O)N2Cc3ccc(-c4cccc(S(C)(=O)=O)c4)cc3CC2C(=O)NCc2ccc(C#N)cc2)c(C)c1` (stereo not shown) [Compound 5, N-(4-cyanobenzyl)-2-(mesitylsulfonyl)-6-(3-(methylsulfonyl)phenyl)-1,2,3,4 tetrahydroisoquinoline-3-carboxamide], the IC50 [1] is reported as 8.3 µM.

`Cc1cc(C)c(S(=O)(=O)N2Cc3ccc(-c4cccc(S(C)(=O)=O)c4)cc3CC2C(=O)NCc2cccc(C#N)c2)c(C)c1` (stereo not shown) [Compound 12] gave an IC50 [1] of 0.02 µM.

For `Cc1cc(C)c(S(=O)(=O)N2Cc3ccc(-c4cccc(S(C)(=O)=O)c4)cc3CC2C(=O)NCCc2cccc(C#N)c2)c(C)c1` (stereo not shown) [Compound 14], the IC50 [1] was 2.1 µM.

With `Cc1cc(C)c(S(=O)(=O)N2Cc3ccccc3CC2C(=O)NCCc2cccc(C#N)c2)c(C)c1` (stereo not shown) [Compound 38] the IC50 [1] was 0.661 µM.

In the case of `COc1ccc(-c2ccc3nc(NS(=O)(=O)c4c(C)cc(C)cc4C)ccc3c2)cc1` [Compound 104], the IC50 [1] is reported as 4.3 µM.

`O=C(Nc1ccc2cc(Br)ccc2n1)c1cccc(Cl)c1` [Compound 113] showed an IC50 [1] of 5.2 µM.

With `Cc1cc(C)c(S(=O)(=O)N(CCc2cccc(Br)c2)Cc2ccc(-c3cccc(S(C)(=O)=O)c3)cc2)c(C)c1` [SR9243] the “cytotoxic T-cell activity” value [2] was “induces”, the dendritic cell activity [2] was “induces” and the “inhibition of dendritic cell chemokine expression by LXR agonists and tumor specific LXR ligands” value [3] was “disrupted”.
